The values below are quoted from earlier work in patent US20210046029A1, “LEVODOPA AND CARBIDOPA INTESTINAL GEL AND METHODS OF USE” (AbbVie Inc., priority 2015, published 2021).

This data set has as its target T1, peripheral dopa decarboxylase (Homo sapiens, UniProt P20711).
T1 construct: host or cells: endogenous enzyme of peripheral tissues in vivo
T1 sequence (P20711 1-480): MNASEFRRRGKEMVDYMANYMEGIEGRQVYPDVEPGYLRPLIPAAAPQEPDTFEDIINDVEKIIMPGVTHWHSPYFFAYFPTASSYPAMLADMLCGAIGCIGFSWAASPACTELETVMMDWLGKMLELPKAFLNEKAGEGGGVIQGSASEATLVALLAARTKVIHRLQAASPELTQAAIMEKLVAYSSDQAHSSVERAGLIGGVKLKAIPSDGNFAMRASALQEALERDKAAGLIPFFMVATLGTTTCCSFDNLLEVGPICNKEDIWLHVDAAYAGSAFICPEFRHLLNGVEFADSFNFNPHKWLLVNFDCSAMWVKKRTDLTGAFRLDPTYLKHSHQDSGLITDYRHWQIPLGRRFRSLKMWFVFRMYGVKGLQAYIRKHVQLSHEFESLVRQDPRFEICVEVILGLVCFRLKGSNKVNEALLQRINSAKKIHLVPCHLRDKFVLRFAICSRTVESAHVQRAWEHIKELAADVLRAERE
The conditions noted are these: in vivo.

For `C[C@@](Cc1ccc(O)c(O)c1)(NN)C(=O)O` [carbidopa, (2S)-3-(3,4-dihydroxy-phenyl)-2-hydrazino-2-methylpropanoic acid], the “Carbidopa dose that saturates peripheral dopa decarboxylase” value is listed as 70-100 mg a day.
